Read-outs that look alike come from different tables or passages of the source.
Assays:
5-HT transporter = biological target: T1, 5-HT transporter (Homo sapiens, UniProt P31645); test: Serotonergic transporter binding ([3H]imipramine); details: [3H]imipramine 2 nM, HEK-293 recombinant, read-out: percentage inhibition at 10 μM of control specific binding to the serotonergic transporter
T1 construct: expressed in transfected cells; host or cells: HEK-293
Experimental: The serotonergic 5-HT transporter was isolated from human recombinant HEK-293 cells according to the method described by Tatsumi et al. (1997), Pharmacological profile of antidepressants and related compounds at human monoamine transporters, Eur. J. Pharmacol., 340: 249-258.
Serotonergic transporter binding was determined by a radioligand method using tritium-labelled imipramine (2 nM) as substrate (Tatsumi et al., 1999). Ligand radioactivity was determined by liquid scintillation counting. Ligand incubations were carried out for thirty minutes at 22° C. The experiment was conducted in duplicate.
The specific ligand binding to the serotonergic transporter was defined as the difference between the total binding and the non specific binding determined in presence of an excess of unlabelled ligand. The results obtained are presented in Table 3 hereinbelow and are expressed as percent of control specific binding and as a percent inhibition of control specific binding obtained in presence of 10 μM of substance.

PDE2 = biological target: T2, PDE2 (Homo sapiens, UniProt O00408); test: Inhibition of PDE2 (radioenzymatic phosphodiesterase assay); format: biochemical
T2 construct: PDE2 was isolated from human platelets, provided by Etablissement Français du Sang-Alsace; tissue Etablissement Français du Sang-Alsace; host or cells: human platelets
Experimental: (§1) 2.1.1. Isolation of Phosphodiesterases from Smooth Muscle A 3 g segment of bovine aortic media cut into pieces with scissors was homogenized with an ultra-turrax then a potter glass/glass homogenizer in 7 volumes by weight of buffer A containing a protease inhibitor cocktail (20 mM Tris-HCl, 0.25 M saccharose, 2 mM magnesium acetate, 1 mM dithiothreitol, 5 mM EGTA, 2000 U/ml aprotinin, 10 mg/l leupeptin and 10 mg/l soya trypsic inhibitor). The homogenizate was centrifuged at 105,000 g for 1 hour. The supernatant was loaded on a DEAE-Sephacel column (15×1.6 cm) pre-equilibrated with buffer B (buffer A without the saccharose, EGTA and protease inhibitors). The column was washed until there was no detectable absorption at 280 nm, then eluted with a linear gradient of NaCl (0-0.5 M) in buffer B. 3-ml fractions were collected and enzyme activity was determined under the conditions described hereinbelow to localize the different enzymes PDE1, PDE3, PDE4 and PDE5 which were aliquoted and frozen at −80° C. (Lugnier et al., Biochem. Phamacol., 1986, 35: 1746-1751). PDE2 was isolated from human platelets, provided by Etablissement Français du Sang-Alsace, according to Kameni Tcheudji J F et al., (J. Mol. Biol. 2001; 310: 181-791), and stored until use at −80° C. in small aliquots.
(§2) Cyclic nucleotide phosphodiesterase activity was determined by a radioenzymatic method using tritium-labelled cyclic GMP or AMP (1 μM) as substrate (Lugnier et al., 1986). ^3H-labelled adenosine or guanosine monophosphate formed by hydrolysis of the radiolabelled cyclic nucleotide was then converted to ^3H-labelled adenosine or guanosine in a second reaction with […] in excess. The nucleoside formed was separated from the nucleotides by anion exchange chromatography. Nucleoside radioactivity was determined by liquid scintillation counting. Enzymatic incubations were carried out under conditions allowing no more than 15% hydrolysis of the substrate; each point was performed in duplicate.
The concentration of substance which inhibits enzymatic activity by 50% (IC50) at 1 μM cyclic AMP was calculated by nonlinear regression from the experimental values of hydrolysis rate (Prism, GraphPad).

PDE3 = biological target: T3, PDE3 (Bos taurus, UniProt A0A3Q1M1E8); test: Selectivity: inhibition of PDE3 (radioenzymatic assay); format: biochemical, bovine; details: Table 2; 10 μM compound; read-out: PDE3 percentage inhibition at 10 μM
T3 sequence (A0A3Q1M1E8 1-1126): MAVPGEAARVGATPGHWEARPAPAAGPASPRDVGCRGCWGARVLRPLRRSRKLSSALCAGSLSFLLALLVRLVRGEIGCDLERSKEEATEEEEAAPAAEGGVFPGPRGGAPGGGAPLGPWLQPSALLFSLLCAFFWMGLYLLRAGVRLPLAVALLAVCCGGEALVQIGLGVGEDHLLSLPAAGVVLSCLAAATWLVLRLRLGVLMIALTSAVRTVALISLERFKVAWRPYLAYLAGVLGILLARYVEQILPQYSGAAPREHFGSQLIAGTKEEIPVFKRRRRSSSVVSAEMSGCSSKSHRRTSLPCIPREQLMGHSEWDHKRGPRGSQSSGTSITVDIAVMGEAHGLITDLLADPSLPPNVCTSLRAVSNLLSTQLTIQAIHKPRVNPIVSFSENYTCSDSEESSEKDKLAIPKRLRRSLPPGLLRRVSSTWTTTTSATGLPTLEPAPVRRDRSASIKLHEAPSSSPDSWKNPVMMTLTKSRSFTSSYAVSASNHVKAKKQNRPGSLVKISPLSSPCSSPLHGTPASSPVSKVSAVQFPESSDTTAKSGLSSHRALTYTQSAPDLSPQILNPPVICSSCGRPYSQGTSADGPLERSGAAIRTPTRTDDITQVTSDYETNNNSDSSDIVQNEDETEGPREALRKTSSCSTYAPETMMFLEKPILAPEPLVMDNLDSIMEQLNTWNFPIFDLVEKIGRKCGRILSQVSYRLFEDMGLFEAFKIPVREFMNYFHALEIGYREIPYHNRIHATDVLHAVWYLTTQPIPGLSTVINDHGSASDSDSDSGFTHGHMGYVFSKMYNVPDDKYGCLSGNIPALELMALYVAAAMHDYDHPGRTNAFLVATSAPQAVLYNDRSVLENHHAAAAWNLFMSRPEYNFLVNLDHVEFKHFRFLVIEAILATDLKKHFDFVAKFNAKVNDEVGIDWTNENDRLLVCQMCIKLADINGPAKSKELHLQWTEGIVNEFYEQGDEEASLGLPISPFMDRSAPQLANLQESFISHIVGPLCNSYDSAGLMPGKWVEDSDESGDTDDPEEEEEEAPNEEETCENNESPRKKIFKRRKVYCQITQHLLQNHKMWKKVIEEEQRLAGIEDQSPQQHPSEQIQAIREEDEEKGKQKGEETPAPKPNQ
Experimental: as §1, with “PDE2 was isolated from human platelets, provided by Etablissement Français du Sang-Alsace, according to Kameni Tcheudji J F et al., (J. Mol. Biol. 2001; 310: 181-791), and stored until use at −80° C. in small aliquots.” left out
as §2, with “The nucleoside formed was separated from the nucleotides by anion exchange chromatography.” left out, “Enzymatic incubations were carried out under conditions allowing no more than 15% hydrolysis of the substrate; each point was performed in duplicate.” left out
(§3) The activity of the compounds was evaluated on other phosphodiesterase isoforms, particularly basal state or calmodulin-activated PDE1 from vascular smooth muscle, PDE3, PDE4 and PDE5 from vascular smooth muscle. The results obtained are presented in Tables 1 and 2 hereinbelow and are expressed as the percentage inhibition of enzymatic activity produced by […] of the test compound.

PDE4 = test: Selectivity: inhibition of PDE4 (radioenzymatic assay); format: biochemical, bovine; details: Table 2; for PDE4 percentage inhibition at 10 μM: 10 μM compound
Experimental: as §1, §2, §3

σ receptors [1] = test: Isolated organ bioassay, field-stimulated vas deferens: test for agonist activity; design: species or system guinea pig
Experimental: (§4) Segments of guinea pig vas deferens were suspended in 20-ml organ baths containing an oxygenated (95% O2 and 5% CO2) and pre-warmed (37° C.) physiological salt solution of the following composition (in mM): NaCl 118.0, KCl 4.7, MgSO4 1.2, CaCl2 2.5, KH2PO4 1.2, NaHCO3 25.0 and glucose 11.0 (pH 7.4). Yohimbine (1 μM), (−) sulpiride (1 μM), atropine (1 μM) and naloxone (1 μM) were also present throughout the experiments to block the α2-adrenergic, dopamine D2, muscarinic and opioid receptors, respectively. The tissues were connected to force transducers for isometric tension recordings. They were stretched to a resting tension of 0.5 g, allowed to equilibrate for at least 30 min during which time they were washed repeatedly and the tension readjusted. Thereafter, they were stimulated electrically using a constant current stimulator.
The tissues were exposed to a submaximal concentration of the reference agonist (+) SKF-10047 (100 μM) to verify responsiveness and to obtain a control response. Following washings and recovery of the twitch contraction amplitude, the tissues were exposed to increasing concentrations of substance or the same agonist. The different concentrations were added cumulatively and each was left in contact with the tissues until a stable response was obtained or for a maximum of 15 min. If an agonist-like response (enhancement of twitch contractions) was obtained, the reference antagonist rimcazole (10 μM) was tested against the highest concentration of substance to confirm the involvement of the σ receptors in this response.
(§5) The parameter measured was the maximum change in the twitch contraction amplitude induced by each compound concentration. The results are expressed as a percent variation of the control twitch contraction amplitude (mean values). The effects of substance tested at 1.0 10^−6 M, 3.0 10^−6 M and 1.0 10^−5 M for agonist and antagonist activities at the σ receptors in the guinea pig vas deferens bioassay are summarized in Tables 6-7 where those of the reference compounds are also reported.

σ receptors [2] = test: Isolated organ bioassay, field-stimulated vas deferens: test for antagonist activity; design: species or system guinea pig; details: for Response to (+)SKF-10,047 (1.0 10^−4 M) in the presence of the compound: mean, n=2
Experimental: as §4
The tissues were exposed to a submaximal concentration of the reference agonist (+) SKF-10047 (100 μM) to obtain a control response. After stabilization of the (+) SKF-10047-induced response, increasing concentrations of substance or the reference antagonist rimcazole were added cumulatively. Each concentration was left in contact with the tissues until a stable response was obtained or for a maximum of 15 min. If it occurred, an inhibition of the (+) SKF-10047-induced increase in twitch contraction amplitude by substance indicated an antagonist activity at the σ receptors.
as §5

[3] = Table 1, 10 μM compound, 1 μM cyclic AMP, read-out: PDE2 percentage inhibition at 10 μM
[4] = field-stimulated guinea pig vas deferens
[5] = read-out: PDE2 percentage inhibition at 10 μM, Table 1, 10 μM compound, 1 μM cyclic AMP

T1 sequence (P31645 whole entry): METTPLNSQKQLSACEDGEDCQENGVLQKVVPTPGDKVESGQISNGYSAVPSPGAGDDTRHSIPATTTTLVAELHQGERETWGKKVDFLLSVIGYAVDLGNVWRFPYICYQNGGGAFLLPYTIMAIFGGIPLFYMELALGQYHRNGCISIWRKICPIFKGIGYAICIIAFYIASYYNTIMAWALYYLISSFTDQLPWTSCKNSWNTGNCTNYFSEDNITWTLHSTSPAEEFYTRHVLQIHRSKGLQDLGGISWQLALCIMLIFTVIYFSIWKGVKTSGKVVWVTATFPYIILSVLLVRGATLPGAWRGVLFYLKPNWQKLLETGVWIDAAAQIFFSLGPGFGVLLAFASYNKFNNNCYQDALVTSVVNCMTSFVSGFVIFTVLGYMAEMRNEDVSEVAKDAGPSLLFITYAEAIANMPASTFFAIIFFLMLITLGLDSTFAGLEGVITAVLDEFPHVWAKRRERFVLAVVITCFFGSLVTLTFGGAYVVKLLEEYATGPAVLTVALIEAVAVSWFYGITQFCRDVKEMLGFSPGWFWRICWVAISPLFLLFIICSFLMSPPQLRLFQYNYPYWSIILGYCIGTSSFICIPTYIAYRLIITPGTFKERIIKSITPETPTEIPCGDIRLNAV
T2 sequence (O00408 whole entry): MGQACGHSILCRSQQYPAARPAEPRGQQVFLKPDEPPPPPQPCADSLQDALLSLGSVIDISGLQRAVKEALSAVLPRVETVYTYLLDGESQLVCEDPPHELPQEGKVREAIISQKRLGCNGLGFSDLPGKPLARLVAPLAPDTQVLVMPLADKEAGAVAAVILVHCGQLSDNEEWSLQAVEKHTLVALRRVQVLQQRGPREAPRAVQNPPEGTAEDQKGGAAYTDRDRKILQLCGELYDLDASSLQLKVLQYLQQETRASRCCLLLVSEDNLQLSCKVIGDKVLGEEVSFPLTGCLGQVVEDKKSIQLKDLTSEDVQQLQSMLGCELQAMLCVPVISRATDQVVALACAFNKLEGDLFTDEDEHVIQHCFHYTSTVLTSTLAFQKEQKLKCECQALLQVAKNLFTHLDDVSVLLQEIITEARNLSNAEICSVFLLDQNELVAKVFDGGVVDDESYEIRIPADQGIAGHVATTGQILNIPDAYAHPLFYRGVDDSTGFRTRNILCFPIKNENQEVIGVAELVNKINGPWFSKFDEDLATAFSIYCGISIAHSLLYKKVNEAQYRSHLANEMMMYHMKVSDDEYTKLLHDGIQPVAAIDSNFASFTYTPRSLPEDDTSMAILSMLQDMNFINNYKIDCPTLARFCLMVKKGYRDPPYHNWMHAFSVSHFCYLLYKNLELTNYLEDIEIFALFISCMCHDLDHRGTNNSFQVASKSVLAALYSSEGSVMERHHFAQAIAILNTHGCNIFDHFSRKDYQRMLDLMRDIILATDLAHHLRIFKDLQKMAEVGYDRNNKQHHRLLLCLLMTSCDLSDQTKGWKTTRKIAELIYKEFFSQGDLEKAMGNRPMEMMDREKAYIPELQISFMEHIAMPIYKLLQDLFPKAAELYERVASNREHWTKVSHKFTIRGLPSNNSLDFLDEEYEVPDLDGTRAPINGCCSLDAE

| Compound | inhibition at 10 µM (5-HT transporter) | inhibition at 10 µM (PDE2; [3]) | PDE4 percentage inhibition at 10 μM (PDE4) | IC50 (PDE2) | further results |
| --- | --- | --- | --- | --- | --- |
| COc1cc2c(c(OC)c1-c1ccccc1)C(c1ccccc1)=NCC(=O)N2C [Compound 9, 6,8-Dimethoxy-1-methyl-5,7-diphenyl-1,3-dihydro-benzo[e][1,4]diazepin-2-one] | 1% | 71% | – | – | – |
| COc1cc2c(c(OC)c1-c1cccnc1)C(c1cccc(C(N)=O)c1)=NCC(=O)N2 [Compound 20, 3-(6,8-Dimethoxy-2-oxo-7-pyridin-3-yl-2,3-dihydro-1H-benzo[e][1,4]diazepin-5-yl)-benzamide] | 16% | – | – | – | PDE2 percentage inhibition at 10 μM (PDE2; Table 1, 10 μM compound, 1 μM cyclic AMP): 68% |
| COc1cc2c(c(OC)c1-c1ccccc1)C(c1cccc(C#N)c1)=NCC(=O)N2C [Compound 6, 3-(6,8-Dimethoxy-1-methyl-2-oxo-7-phenyl-2,3-dihydro-1H-benzo[e][1,4]diazepin-5-yl)-benzonitrile] | – | 80% | 37% | 1800 nM | inhibition at 10 µM (PDE3): 40% |
| COc1cc2c(c(OC)c1-c1ccc(Cl)cc1)C(c1cccc(C#N)c1)=NCC(=O)N2C [Compound 7, 3-[7-(4-Chloro-phenyl)-6,8-dimethoxy-1-methyl-2-oxo-2,3-dihydro-1H-benzo[e][1,4]diazepin-5-yl]-benzonitrile] | 16% | 61% | 41% | 4600 nM | – |
| COc1cc2c(c(OC)c1-c1ccc(Cl)cc1)C(c1cccc(C#N)c1)=NCC(=O)N2 [Compound 2, 3-[7-(4-Chloro-phenyl)-6,8-dimethoxy-2-oxo-2,3-dihydro-1H-benzo[e][1,4]diazepin-5-yl]-benzonitrile] | 12% | 93% | 58% | 730 nM | – |
| (+)SKF-10,047 | – | – | – | – | Response to the compound, variation of twitch contraction amplitude (σ receptors [1]; 1.0 10^−4 M, mean, n=2): +158%; Response to the compound, variation of twitch contraction amplitude (σ receptors [1]; 1.0 10^−5 M, mean, n=2): +40%; Response to the compound, variation of twitch contraction amplitude (σ receptors [1]; 3.0 10^−5 M, mean, n=2): +90%; Effect on twitch contraction amplitude (in words) (σ receptors [1]; [4]): concentration-dependent enhancement of the twitch contraction amplitude; Response to the highest concentration of the compound +Rimcazole (1.0 10^−5 M) (σ receptors [1]; highest compound concentration plus rimcazole 1.0 10^−5 M, mean, n=2): −8% |
| COc1cc2c(c(OC)c1-c1ccc(Cl)cc1)C(c1cccc(C(N)=O)c1)=NCC(=O)N2C [Compound 18] | 0% | 98% | 66% | – | IC50 (PDE4; value in square brackets): 6500 nM; IC50 (PDE2; Table 1, value in square brackets, 1 μM cyclic AMP, read-out: PDE2 IC50): 300 nM |
| C[C@@H]1CN(CCCn2c3ccccc3c3ccccc32)C[C@H](C)N1 [rimcazole] | – | – | – | – | Response to (+)SKF-10,047 (1.0 10^−4 M) in the presence of the compound (σ receptors [2]; compound 1.0 10^−6 M): +111%; Response to (+)SKF-10,047 (1.0 10^−4 M) in the presence of the compound (σ receptors [2]; compound 3.0 10^−6 M): +52%; Effect on the (+) SKF 10,047-induced enhancement of twitch contraction amplitude (in words) (σ receptors [2]; [4]): inhibited; Response to (+)SKF-10,047 (1.0 10^−4 M) in the presence of the compound (σ receptors [2]; third (highest) concentration, printed 1.0 10^−6 M): −12% |
| COc1cc2c(c(OC)c1-c1ccccc1)C(c1cccc(C#N)c1)=NCC(=O)N2 [Compound 1, 3-(6,8-Dimethoxy-2-oxo-7-phenyl-2,3-dihydro-1H-benzo[e][1,4]diazepin-5-yl)-benzonitrile] | 5% | – | 43.3% | 3000 nM | inhibition at 10 µM (PDE2; [5]): 9%; inhibition at 10 µM (PDE2; read-out: PDE2 percentage inhibition at 10 μM, Table 2, 10 μM compound): 9% |
| COc1cc2c(c(OC)c1-c1cccnc1)C(c1cccc(C#N)c1)=NCC(=O)N2C [Compound 8, 3-(6,8-Dimethoxy-1-methyl-2-oxo-7-pyridin-3-yl-2,3-dihydro-1H-benzo[e][1,4]diazepin-5-yl)-benzonitrile] | 8% | – | – | – | inhibition at 10 µM (PDE2; [5]): 56% |

From US20090215752A1, “Compounds, preparation and therapeutic use thereof” (priority 2005, published 2009)
